The source made the active and inactive calls. No cut-off for these calls is given here.
How the values were obtained:
[1] = Cytotoxicity against human U87MG cells after 6 days; format: functional, U-87MG ATCC; conditions: U-87 MG, 144 h, read-out: LD50 (the source's name)
U-87MG ATCC = assay: Cytotoxicity against human U87MG cells at 250 nM after 6 days; format: functional, cell-based

SMILES | CC50 [1] [nM] | Activity (U-87MG ATCC)
CC[C@@]1(OC(=O)OCCOCCOCCOCCOC(=O)CCCC[C@@H]2CCSS2)C(=O)OCc2c1cc1n(c2=O)Cc2cc3ccccc3nc2-1 | 20 | Active
CC[C@@]1(O)C(=O)OCc2c1cc1n(c2=O)Cc2cc3ccccc3nc2-1 [CAMPTOTHECIN] | 20 | Active
